Test results taken from PubChem BioAssay (NCI).
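Assay format: 96-well plates, 48-hour exposure. GI50 = concentration required for 50% inhibition of growth. TGI denotes the concentration required for complete inhibition of growth.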 *1 amine or outer side, *2 acyl side, *3 side chain or, on linkers, in order; H or OH if unused. Where a SMILES comes first, the peptide text is derived from it. Bridges are numbered along the chain shown (N, C = ends). [ ]: non-standard residue; d: D form. The star is where a group is joined. X19 = O=C([C@H](N[*:1])c1ccc(O[C@H]2O[C@@H](CO)[C@@H](O)[C@@H](O)[C@H]2O[C@@H]2O[C@H](CO)[C@H](O)[C@H](O)[C@@H]2O)cc1)[*:2]; X18 = NC(=O)[C@@H](O[*:3])[C@H](N[*:1])C(=O)[*:2]; X20 = O=C([C@H](N[*:1])c1ccc(O)c(Cl)c1)[*:2]; d(aThr) = C[C@@H](O)[C@@H](N)C(=O)O; dHpg = N[C@@H](C(=O)O)c1ccc(O)cc1; X17 = CC(C)C/C=C/C=C/C(=O)*; dOrn = NCCC[C@@H](N)C(=O)O

How the values were obtained:
Assay in all cases: growth of human tumour cells (NCI), 48 h
BT-549 breast = system: BT-549 breast
HT29 colon = system: HT29 colon
MALME-3M melanoma = system: MALME-3M melanoma
RPMI-8226 leukemia = system: RPMI-8226 leukemia
RXF 393 renal = system: RXF 393 renal
SK-MEL-28 melanoma = system: SK-MEL-28 melanoma
SK-OV-3 ovarian = system: SK-OV-3 ovarian
TK-10 renal = system: TK-10 renal
UACC-62 melanoma = system: UACC-62 melanoma
SR leukemia = system: SR leukemia

Row | Compound | GI50 (BT-549 breast) [µM] | TGI (BT-549 breast) [µM] | GI50 (HT29 colon) [µM] | TGI (HT29 colon) [µM] | GI50 (MALME-3M melanoma) [µM] | TGI (MALME-3M melanoma) [µM] | GI50 (RPMI-8226 leukemia) [µM] | TGI (RPMI-8226 leukemia) [µM] | GI50 (RXF 393 renal) [µM] | TGI (RXF 393 renal) [µM] | GI50 (SK-MEL-28 melanoma) [µM] | TGI (SK-MEL-28 melanoma) [µM] | GI50 (SK-OV-3 ovarian) [µM] | TGI (SK-OV-3 ovarian) [µM] | GI50 (TK-10 renal) [µM] | TGI (TK-10 renal) [µM] | GI50 (UACC-62 melanoma) [µM] | TGI (UACC-62 melanoma) [µM] | GI50 (SR leukemia) [µM] | TGI (SR leukemia) [µM]
1 | O=C(Nc1ccc(Cl)cc1)c1cc2cc(F)ccc2cc1O | 1.35 | 5.12 | 3.67 | 40 | 0.613 | 4.11 | 0.591 | 7.16 | 3 | 16.1 | 1.75 | > 100 | 1.08 | 5.76 | 2.39 | 58.9 | 0.622 | 23.6 | – | –
2 | COc1ccc(C(=O)C(Br)C(Br)C(=O)O)cc1 (configuration not stated) | – | 63.7 | – | 31 | – | 46.2 | – | 53.2 | – | 56.4 | – | > 100 | – | > 100 | – | > 100 | – | > 100 | – | –
3 | CC1(C)CCC2(C(=O)O)CC[C@]3(C)C(=CCC4C5(C)CC[C@H](OC6OC(C(=O)O)C(O)C(OC7OC(CO)C(O)C(O)C7O)C6OC6OC(CO)C(O)C(O)C6O)C(C)(C)C5CCC43C)C2C1 (some centres not stated) | > 100 | > 100 | 40.9 | > 100 | – | – | 50.9 | > 100 | > 100 | > 100 | – | – | > 100 | > 100 | > 100 | > 100 | 23 | 50.7 | 15.6 | > 100
4 | Cc1cccc2c1NC(=O)[C@@]21[C@H](C(=O)c2ccccc2)[C@]2(C(=O)Nc3ccccc32)[C@H]2CCCN21 | 27.4 | > 100 | 37.3 | > 100 | 31.4 | > 100 | > 100 | > 100 | 13.5 | 47.5 | 34.3 | > 100 | 43.3 | > 100 | 36.8 | > 100 | 12.5 | > 100 | 15.4 | > 100
5 | NC(=O)c1cc(Cl)ccc1NC(=O)c1ccccc1-c1ccccc1 | 0.572 | 52.7 | 0.385 | 11.5 | 0.62 | 62.9 | 2.1 | > 100 | 0.806 | 5.52 | 3.65 | > 100 | 0.677 | 11.3 | 3.69 | 48 | 0.836 | 25.3 | 0.439 | 63
6 | O=C1CCC2=C3C4CCCCC4C(=O)C4CCCC(OC2C1)C34 (configuration not stated) | 1.4 | 6.03 | 8.28 | > 100 | 0.418 | 1.98 | 0.398 | 2.65 | 0.605 | 1.79 | 4.84 | > 31.4 | 5.18 | > 100 | 6.36 | > 29.5 | 1.69 | 4.32 | 0.307 | 54.8
7 | CCC(c1ccc(OC)cc1)C(CC)c1ccc(O)c(CN2CCCC2)c1 (configuration not stated) | 3.27 | 11.5 | 2.18 | 5.78 | 1.76 | 3.95 | 2.24 | 6.28 | 2.81 | 7.55 | 2.04 | 4.57 | 3.68 | 12.9 | 2.35 | 10.8 | 2.07 | 4.97 | 1.49 | 4.62
8 | CNC(=O)c1cncc(/C=C/c2c(C)cccc2C)c1 | > 25 | > 25 | 16.2 | > 25 | 16 | > 25 | > 25 | > 25 | 13.4 | > 25 | > 25 | > 25 | > 25 | > 25 | > 20.9 | > 25 | > 22.5 | > 25 | > 25 | > 25
9 | CC1=C(C(=O)NCC(C)O)CC(C(=O)NCC(C)O)=C(C)N1 (configuration not stated) | – | > 100 | – | > 100 | – | – | – | > 100 | – | > 100 | – | > 100 | – | > 100 | – | > 100 | – | > 100 | – | > 100
10 | CC(C)(C)N1CC(OC(N)=O)C1 | > 100 | > 100 | > 100 | > 100 | > 100 | > 100 | > 100 | > 100 | > 100 | > 100 | > 100 | > 100 | > 100 | > 100 | > 100 | > 100 | > 100 | > 100 | > 100 | > 100
11 | C[C@@H](Oc1cc(NS(=O)(=O)N2CCC2)nc(SCc2cccc(F)c2F)n1)[C@@H](O)CO | > 100 | > 100 | > 100 | > 100 | > 100 | > 100 | > 100 | > 100 | > 100 | > 100 | > 100 | > 100 | > 100 | > 100 | > 100 | > 100 | > 100 | > 100 | > 100 | > 100
12 | CC(C)C/C=C/C=C/C(=O)N[C@@H](CC(N)=O)C(=O)N[C@@H]1C(=O)N[C@H](c2ccc(O)cc2)C(=O)N[C@H](CCCN)C(=O)N[C@H]([C@@H](C)O)C(=O)N[C@H](c2ccc(O)cc2)C(=O)N[C@H](c2ccc(O)cc2)C(=O)N[C@H]([C@H](C)O)C(=O)N[C@H](Cc2ccccc2)C(=O)N[C@H](CCCN)C(=O)N[C@H](c2ccc(O[C@H]3O[C@@H](CO)[C@@H](O)[C@@H](O)[C@H]3O[C@@H]3O[C@H](CO)[C@H](O)[C@H](O)[C@@H]3O)cc2)C(=O)N[C@H]([C@H](C)O)C(=O)N[C@H](c2ccc(O)cc2)C(=O)NCC(=O)N[C@H](CC(C)C)C(=O)N[C@H](C)C(=O)N[C@H](c2ccc(O)c(Cl)c2)C(=O)O[C@@H]1C(N)=O (X17-N[X18][dHpg][dOrn][d(aThr)][dHpg][dHpg][dT][dF][dOrn][X19][dT][dHpg]G[dL][dA][X20]; ester 2-C) | 37.6 | 87.1 | 33.2 | > 100 | 29.7 | 65.5 | 59.8 | > 100 | 86 | > 100 | 23.6 | 47.8 | 25.3 | 64.9 | 38.7 | 91.1 | 21.2 | 45.1 | > 100 | > 100
